Square brackets hold non-standard residues; d marks the D form. Peptide text beside a SMILES is read from it. * marks the point of attachment. d(aIle) = CC[C@H](C)[C@@H](N)C(=O)O; X1 = CC[C@H](C)CCCCC(=O)*; dDab = NCC[C@@H](N)C(=O)O; Dab = NCC[C@H](N)C(=O)O
Assays:
A. baumannii ATCC 19606 [1] = details: ATCC 19606
Method: (§1) MICs for all the compounds were determined by broth microdilution assay, according to CLSI guidelines[16] as described previously. Haemolysis experiments were performed with fresh rabbit RBCs[11]. All the compounds were tested at a concentration of 128 µg/ml. To obtain rabbit blood, the experiments and the protocols were in accordance with the ethical standards of the Institutional Animal Ethics Committee (IAEC) of the Institute of Microbial Technology approved (Approval no. IAEC/17/11) by Committee for the Purpose of Control And Supervision of Experiments on Animals (CPCSEA, Government of India).

E. coli CF-23 (mcr-1) = system: E. coli CF-23 (mcr-1)
Method: as §1

[2] = system: K. pneumoniae AH-16 (Col-R)
Method: as §1

[3] = system: K. pneumoniae AH-3 (Col-R)
Method: as §1

[4] = system: K. pneumoniae ATCC 700603
Method: as §1

K. pneumoniae GMCH 13 [5] = system: K. pneumoniae GMCH 13
Method: as §1

K. pneumoniae GMCH 15 [6] = system: K. pneumoniae GMCH 15
Method: as §1

K. pneumoniae P3R (M1-R) = details: broth microdilution, CLSI guidelines; M1-resistant mutant of ATCC 700603
Method: as §1

P. aeruginosa ATCC 27853 [7] = details: ATCC 27853
Method: as §1

[8] = system: Proteus mirabilis MTCC 1429
Method: as §1

[9] = system: Serratia marcescens MTCC 97
Method: as §1

A. baumannii ATCC 19606 [10] = assay: microbe, parasite or virus in culture; details: ATCC 19606
Method: (§2) Acinetobacter baumannii ATCC 19606, Pseudomonas aeruginosa ATCC 27853, K. pneumoniae ATCC 700603, K. pneumoniae P3R, K. pneumoniae GMCH 13 and K. pneumoniae GMCH 15 were grown in CA-MHB and adjusted to ~4 × 10^5 CFU/ml. 100 µl of fresh CA-MHB containing carbonyl cyanide m-chlorophenyl hydrazine (CCCP) or phenylalanine-arginine beta-naphthylamide (PAβN) (at a final concentration of their 1/4th of MIC or 1/8th of MIC) was added to the wells of a 96-well flat bottom plate. Tridecaptin M was diluted in a 2-fold manner. 100 µl of culture was added and the plates were incubated for 16 to 18 h at 37 °C and observed for MICs. The fold modulation in MICs of tridecaptin M was calculated by comparing the results in the presence or absence of CCCP and PAβN.

K. pneumoniae GMCH 13 [11] = assay: microbe, parasite or virus in culture; details: GMCH 13
Method: as §2

K. pneumoniae GMCH 15 [12] = assay: microbe, parasite or virus in culture; details: GMCH 15
Method: as §2

[13] = system: K. pneumoniae P3R (Tri-M Resistant); assay: microbe, parasite or virus in culture
Method: as §2

P. aeruginosa ATCC 27853 [14] = assay: microbe, parasite or virus in culture; details: ATCC 27853
Method: as §2

## CC[C@H](C)CCCCC(=O)NCC(=O)N[C@H](CCN)C(=O)NCC(=O)N[C@H](CO)C(=O)N[C@H](Cc1c[nH]c2ccccc12)C(=O)N[C@@H](CO)C(=O)N[C@@H](CCN)C(=O)N[C@H](CCN)C(=O)N[C@H](C(=O)N[C@@H](CCC(=O)O)C(=O)N[C@H](C(=O)N[C@@H](C(=O)N[C@@H](CO)C(=O)O)[C@@H](C)CC)[C@@H](C)CC)[C@@H](C)CC [M1, tridecaptin M] (X1-G[dDab]G[dS][dW]S[Dab][dDab]IEI[d(aIle)]S-OH)
A. baumannii ATCC 19606 [1]
  Peptide MIC: 64 µg/mL
E. coli CF-23 (mcr-1)
  Peptide MIC: 4 µg/mL
[2]
  Peptide MIC: 4 µg/mL
[3]
  Peptide MIC: 4 µg/mL
[4]
  Peptide MIC: 4 µg/mL
K. pneumoniae GMCH 13 [5]
  Peptide MIC: 8 µg/mL
K. pneumoniae GMCH 15 [6]
  Peptide MIC: 16 µg/mL
K. pneumoniae P3R (M1-R)
  Peptide MIC: 64 µg/mL
P. aeruginosa ATCC 27853 [7]
  Peptide MIC: >128 µg/mL
[8]
  Peptide MIC: >16 µg/mL
[9]
  Peptide MIC: 8 µg/mL
A. baumannii ATCC 19606 [10]
  Intrinsic Activity; MIC: 64 µg/mL
  MIC of peptide in the presence of PAβN: 64 µg/mL
K. pneumoniae GMCH 13 [11]
  FICI: 0.75
  Intrinsic Activity; MIC: 8 µg/mL
  MIC of peptide in the presence of PAβN: 8 µg/mL
K. pneumoniae GMCH 15 [12]
  Intrinsic Activity; MIC: 16 µg/mL
  MIC of peptide in the presence of PAβN: 16 µg/mL
[13]; CCCP at 1/4th MIC
  MIC of peptide in the presence of CCCP: 64 µg/mL
[13]; CCCP at 1/8th MIC
  MIC of peptide in the presence of CCCP: 64 µg/mL
[13]; PAβN at 1/4th MIC
  MIC of peptide in the presence of PAβN: 64 µg/mL
[13]; PAβN at 1/8th MIC
  MIC of peptide in the presence of PAβN: 64 µg/mL
[13]; ~4 × 10^5 CFU/ml, CA-MHB, 16 to 18 h, 37 °C
  Intrinsic Activity; MIC: 64 µg/mL
P. aeruginosa ATCC 27853 [14]
  Intrinsic Activity; MIC: 256 µg/mL
  MIC of peptide in the presence of CCCP: 256 µg/mL
  MIC of peptide in the presence of PAβN: 256 µg/mL

From paper PMC6906472, “Purification and biological activity of natural variants synthesized by tridecaptin M gene cluster and in vitro drug-kinetics of this antibiotic class” (Scientific Reports, 2019)
